Compound	melting point
S=C(NCc1ccccc1)N1CCN(c2ncnc3cc4c(cc23)OCO4)CC1 [Compound 370, N-Benzyl-4-(6,7-methylenedioxy-4-quinazolinyl)-1-piperazinethiocarboxamide]	176 to 177 °C
S=C(NCc1cccnc1)N1CCN(c2ncnc3cc4c(cc23)OCO4)CC1 [Compound 371, 4-(6,7-Methylenedioxy-4-quinazolinyl)-N-(3-picolyl)-1-piperazinethiocarboxamide]	167 to 168 °C
S=C(NCc1ccccc1)N1CCN(c2ncnc3cc4c(cc23)OCCO4)CC1 [Compound 374, N-Benzyl-4-(6,7-ethylenedioxy-4-quinazolinyl)-1-piperazinethiocarboxamide]	103 to 105 °C
S=C(NCc1cccnc1)N1CCN(c2ncnc3cc4c(cc23)OCCO4)CC1 [Compound 375, 4-(6,7-Ethylenedioxy-4-quinazolinyl)-N-(3-picolyl)-1-piperazinethiocarboxamide]	110 to 113 °C
CC(C)c1ccc(NC(=O)N2CCN(c3ncnc4c(Cl)cc(Cl)cc34)CC2)cc1 [Compound 376, 4-(6,8-Dichloro-4-quinazolinyl)-N-(4-isopropylphenyl)-1-piperazinecarboxamide]	234 to 236 °C
O=C(Nc1ccc(Oc2ccccc2)cc1)N1CCN(c2ncnc3c(Cl)cc(Cl)cc23)CC1 [Compound 377, 4-(6,8-Dichloro-4-quinazolinyl)-N-(4-phenoxyphenyl)-1-piperazinecarboxamide]	195 to 196 °C
CC(C)c1ccc(NC(=O)N2CCN(c3ncnc4c(I)cc(I)cc34)CC2)cc1 [Compound 379, 4-(6,8-Diiodo-4-quinazolinyl)-N-(4-isopropylphenyl)-1-piperazinecarboxamide]	267 to 269 °C
O=C(Nc1ccc(Oc2ccccc2)cc1)N1CCN(c2ncnc3c(I)cc(I)cc23)CC1 [Compound 380, 4-(6,8-Diiodo-4-quinazolinyl)-N-(4-phenoxyphenyl)-1-piperazinecarboxamide]	242 to 244 °C
COc1cc(OC)c2ncnc(N3CCN(C(=O)Nc4ccc(Oc5ccccc5)cc4)CC3)c2c1 [Compound 381, 4-(6,8-Dimethoxy-4-quinazolinyl)-N-(4-phenoxyphenyl)-1-piperazinecarboxamide]	109 to 110 °C
COc1ccc2c(N3CCN(C(=S)NCc4ccccc4)CC3)ncnc2c1OC [Compound 384, N-Benzyl-4-(7,8-dimethoxy-4-quinazolinyl)-1-piperazinethiocarboxamide]	158 to 160 °C
Cn1c(=O)n(C)c2cc3c(N4CCN(C(=O)Nc5ccc([N+](=O)[O-])cc5)CC4)ncnc3cc21 [Compound 386, 4-(1,3-Dihydro-1,3-dimethyl-2-oxo-2H-imidazo[4,5-g]quinazolin-8-yl)-N-(4-nitrophenyl)-1-piperazinecarboxamide]	299 to 300 °C
CCn1c(=O)n(C)c2cc3c(N4CCN(C(=O)Nc5ccc(Oc6ccccc6)cc5)CC4)ncnc3cc21 [Compound 387, 4-(1,3-Dihydro-3-ethyl-1-methyl-2-oxo-2H-imidazo[4,5-g]quinazolin-8-yl)-N-(4-phenoxyphenyl)-1-piperazinecarboxamide]	250 to 251 °C
CCCn1c(=O)n(CCC)c2cc3c(N4CCN(C(=O)Nc5ccc(Oc6ccccc6)cc5)CC4)ncnc3cc21 [Compound 389, 4-(1,3-Dihydro-1,3-dipropyl-2-oxo-2H-imidazo[4,5-g]quinazolin-8-yl)-N-(4-phenoxyphenyl)-1-piperazinecarboxamide]	179 to 180 °C
CCCCn1c(=O)n(CCCC)c2cc3c(N4CCN(C(=O)Nc5ccc(Oc6ccccc6)cc5)CC4)ncnc3cc21 [Compound 390, 4-(1,3-Dibutyl-1,3-dihydro-2-oxo-2H-imidazo[4,5-g]quinazolin-8-yl)-N-(4-phenoxyphenyl)-1-piperazinecarboxamide]	134 to 136 °C
COc1cc2nc(Cl)nc(N3CCN(C(=O)Nc4ccc(Oc5ccccc5)cc4)CC3)c2cc1OC [Compound 392, 4-(2-Chloro-6,7-dimethoxy-4-quinazolinyl)-N-(4-phenoxyphenyl)-1-piperazinecarboxamide]	178 to 179 °C
O=C(Nc1ccc(Oc2ccccc2)cc1)N1CCN(c2ccnc3ccccc23)CC1 [Compound 394, N-(4-Phenoxyphenyl)-4-(4-quinolyl)-1-piperazinecarboxamide]	145 to 146 °C
FC(F)(F)c1ccc2nccc(N3CCN(C(=S)NCc4ccccc4)CC3)c2c1 [Compound 398, N-Benzyl-4-(6-trifluoromethyl-4-quinolyl)-1-piperazinethiocarboxamide]	158 to 159 °C
S=C(NCc1ccc(Cl)cc1)N1CCN(c2ccnc3ccc(Cl)cc23)CC1 [Compound 401, N-(4-Chlorobenzyl)-4-(6-chloro-4-quinolyl)-1-piperazinethiocarboxamide]	89 to 90 °C
S=C(NCc1ccccc1)N1CCN(c2ccnc3cc(Cl)ccc23)CC1 [Compound 405, N-Benzyl-4-(7-chloro-4-quinolyl)-1-piperazinethiocarboxamide]	84 to 86 °C
CCOC(=O)c1cnc2cc(OC)c(OC)cc2c1N1CCN(C(=O)Nc2ccc(Oc3ccccc3)cc2)CC1 [Compound 408, 4-(6,7-Dimethoxy-3-ethoxycarbonyl-4-quinolyl)-N-(4-phenoxyphenyl)-1-piperazinecarboxamide]	163 to 164 °C
CCOC(=O)c1cnc2cc(OC)c(OC)cc2c1N1CCN(C(=S)NCc2ccccc2)CC1 [Compound 409, N-Benzyl-4-(6,7-dimethoxy-3-ethoxycarbonyl-4-quinolyl)-1-piperazinethiocarboxamide]	174 to 175 °C
CCOC(=O)c1cnc2cc(OC)c(OC)cc2c1N1CCN(C(=S)NCc2cccnc2)CC1 [Compound 410, 4-(6,7-Dimethoxy-3-ethoxycarbonyl-4-quinolyl)-N-(3-picolyl)-1-piperazinethiocarboxamide]	92 to 94 °C
O=C(Nc1ccc(Oc2ccccc2)cc1)N1CCN(c2ccnc3c(C(F)(F)F)cccc23)CC1 [Compound 411, N-(4-Phenoxyphenyl)-4-(8-trifluoromethyl-4-quinolyl)-1-piperazinecarboxamide]	214 to 215 °C
O=C(Nc1ccc(Oc2ccccc2)cc1)N1CCN(c2ccnc3c(Cl)cccc23)CC1 [Compound 412, 4-(8-Chloro-4-quinolyl)-N-(4-phenoxyphenyl)-1-piperazinecarboxamide]	174 to 175 °C

Other lines, results leading:

melting point	Compound
227 to 228 °C	O=C(Nc1ccc(Oc2ccccc2)cc1)N1CCN(c2ncnc3cc4c(cc23)OCCO4)CC1 [Compound 372, 4-(6,7-Ethylenedioxy-4-quinazolinyl)-N-(4-phenoxyphenyl)-1-piperazinecarboxamide]
246 to 247 °C	N#Cc1ccc(NC(=O)N2CCN(c3ncnc4cc5c(cc34)OCCO5)CC2)cc1 [Compound 373, N-(4-Cyanophenyl)-4-(6,7-ethylenedioxy-4-quinazolinyl)-1-piperazinecarboxamide]
187 to 188 °C	CC(=O)c1ccc(NC(=O)N2CCN(c3ncnc4c(Cl)cc(Cl)cc34)CC2)cc1 [Compound 378, N-(4-Acetylphenyl)-4-(6,8-dichloro-4-quinazolinyl)-1-piperazinecarboxamide]
189 to 190 °C	COc1ccc2c(N3CCN(C(=O)Nc4ccc(Oc5ccccc5)cc4)CC3)ncnc2c1OC [Compound 383, 4-(7,8-Dimethoxy-4-quinazolinyl)-N-(4-phenoxyphenyl)-1-piperazinecarboxamide]
207 to 208 °C	CCn1c(=O)n(C)c2cc3c(N4CCN(C(=S)NCc5ccccc5)CC4)ncnc3cc21 [Compound 388, N-Benzyl-4-(1,3-dihydro-3-ethyl-1-methyl-2-oxo-2H-imidazo[4,5-g]quinazolin-8-yl)-1-piperazinethiocarboxamide]
146 to 147 °C	COc1cc2nc(C)nc(N3CCN(C(=O)Nc4ccc(Oc5ccccc5)cc4)CC3)c2cc1OC [Compound 391, 4-(6,7-Dimethoxy-2-methyl-4-quinazolinyl)-N-(4-phenoxyphenyl)-1-piperazinecarboxamide]
114 to 116 °C	COc1cc2nc(N3CCOCC3)nc(N3CCN(C(=O)Nc4ccc(Oc5ccccc5)cc4)CC3)c2cc1OC [Compound 393, 4-(6,7-Dimethoxy-2-morpholino-4-quinazolinyl)-N-(4-phenoxyphenyl)-1-piperazinecarboxamide]
75 to 79 °C	S=C(NCc1ccccc1)N1CCN(c2ccnc3ccccc23)CC1 [Compound 395, N-Benzyl-4-(4-quinolyl)-1-piperazinethiocarboxamide]
203 to 204 °C	O=C(Nc1ccc(Oc2ccccc2)cc1)N1CCN(c2cc(C(F)(F)F)nc3ccccc23)CC1 [Compound 397, N-(4-Phenoxyphenyl)-4-(2-trifluoromethyl-4-quinolyl)-1-piperazinecarboxamide]
188 to 189 °C	O=C(Nc1ccc(Oc2ccccc2)cc1)N1CCN(c2ccnc3ccc(Cl)cc23)CC1 [Compound 399, 4-(6-Chloro-4-quinolyl)-N-(4-phenoxyphenyl)-1-piperazinecarboxamide]
173 to 174 °C	S=C(NCc1ccccc1)N1CCN(c2ccnc3ccc(Cl)cc23)CC1 [Compound 400, N-Benzyl-4-(6-chloro-4-quinolyl)-1-piperazinethiocarboxamide]
70 to 71 °C	FC(F)(F)Oc1ccc2nccc(N3CCN(C(=S)NCc4ccccc4)CC3)c2c1 [Compound 403, N-Benzyl-4-(6-trifluoromethoxy-4-quinolyl)-1-piperazinethiocarboxamide]
163 to 164 °C	O=C(Nc1ccc(Oc2ccccc2)cc1)N1CCN(c2ccnc3cc(C(F)(F)F)ccc23)CC1 [Compound 404, N-(4-Phenoxyphenyl)-4-(7-trifluoromethyl-4-quinolyl)-1-piperazinecarboxamide]
204 to 206 °C	COc1cc2nccc(N3CCN(C(=O)Nc4ccc(Oc5ccccc5)cc4)CC3)c2cc1OC [Compound 407, 4-(6,7-Dimethoxy-4-quinolyl)-N-(4-phenoxyphenyl)-1-piperazinecarboxamide]

Reference: patent US6472391B2, “Nitrogen-containing heterocyclic compounds” (Millennium Pharmaceuticals, Inc., priority 1996, dated 2002)
